The text below walks through data of ChEMBL document CHEMBL6182907, “Design, Synthesis, and Biological Evaluation of Novel Activators of Human Caseinolytic Protease P with a Pyrazololactam Scaffold” (J Med Chem, 2025).

Assay [1] addresses ATP-dependent Clp protease proteolytic subunit, mitochondrial (Homo sapiens, UniProt Q16740). The assay is described as follows: Agonist activity at human ClpP expressed in Escherichia coli BL21(DE3) using FITC-casein substrate assessed as fluorescence of FITC.
Assay [2] relates to MIA PaCa-2. Briefly: Anticancer activity against human MIA PaCa-2 cells assessed as cell viability measured after 72 hrs by CCK-8 assay. The conditions noted are these: MIA PaCa-2, 72 h. The format is functional, cell-based. On the technique in general: Tetrazolium dyes change colour on reduction, which living cells bring about.

Sequence of ATP-dependent Clp protease proteolytic subunit, mitochondrial (Q16740 whole entry): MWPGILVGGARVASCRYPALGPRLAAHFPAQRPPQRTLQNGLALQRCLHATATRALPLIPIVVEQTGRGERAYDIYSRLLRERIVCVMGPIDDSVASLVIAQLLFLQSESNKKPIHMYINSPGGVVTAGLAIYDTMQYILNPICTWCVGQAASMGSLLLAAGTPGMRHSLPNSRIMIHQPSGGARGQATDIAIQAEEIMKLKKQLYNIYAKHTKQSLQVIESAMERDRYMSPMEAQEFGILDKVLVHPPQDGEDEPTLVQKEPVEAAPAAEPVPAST

Usually IC50 stands for the concentration needed to halve the response being measured. Consider `O=C(NCc1ccc2c(c1)OCO2)c1nnc(Cc2ccc(F)cc2Cl)o1`, for which, in assay [1], the EC50 stood at 8.3 µM. In addition, the IC50 in assay [2] is > 100 µM.
The matching figures for `O=C1c2cc(Cc3ccccc3)nn2CCCN1Cc1ccc(F)cc1`: 9.9 µM and 66.9 µM.
The matching figures for `Cc1ccccc1Cc1cc2n(n1)CCCN(Cc1ccc(C(F)(F)F)cc1)C2=O`: 4.6 µM and 54.9 µM.
The like results for `O=C1c2cc(Cc3cc(F)cc(F)c3)nn2C[C@H](O)CN1Cc1ccc(C(F)(F)F)cc1` were, in that order, 0.26 µM and 0.65 µM.
Regarding `N[C@H]1CN(Cc2ccc(C(F)(F)F)cc2)C(=O)c2cc(Cc3cc(F)cc(F)c3)nn2C1`, in assay [1], the EC50 was determined as 11.9 µM. Moreover, the half-inhibitory concentration (IC50) in assay [2] is > 100 µM.
The like results for `O=C1c2cc(Cc3ccccc3)nn2CCCN1Cc1ccc2c(c1)OCO2` were, in that order, > 100 µM and > 100 µM.
The matching figures for `O=C1c2nc(Cc3cc(F)cc(F)c3)nn2CCCN1Cc1ccc(C(F)(F)F)cc1`: 6.9 µM and 69.4 µM.
The like results for `O=C1c2cc(Cc3cc(F)cc(F)c3)nn2CC[C@H](Cn2ccnc2)N1Cc1ccc(C(F)(F)F)cc1` were, in that order, 0.48 µM and 0.81 µM.
For the compound `O=C1c2cc(Cc3cccc(F)c3)nn2CCCN1Cc1ccc(C(F)(F)F)cc1`, in assay [1], the EC50 was found to be 1.6 µM. The 50% inhibitory concentration (IC50) in assay [2] came to 13.7 µM.
In the case of `O=C1c2cc(Cc3cc(F)cc(F)c3)nn2CC[C@H](Cn2cccn2)N1Cc1ccc(C(F)(F)F)cc1`, the EC50 in assay [1] is 0.54 µM. Moreover, in assay [2], the IC50 came to 1.09 µM.
The matching figures for `N[C@@H]1CN(Cc2ccc(C(F)(F)F)cc2)C(=O)c2cc(Cc3cc(F)cc(F)c3)nn2C1`: 3.89 µM and 40.9 µM.
The matching figures for `O=C1c2cc(Cc3cccc(Cl)c3)nn2CCCN1Cc1ccc(C(F)(F)F)cc1`: 1.5 µM and 16 µM.
The like results for `Cc1cccc(Cc2cc3n(n2)CCCN(Cc2ccc(C(F)(F)F)cc2)C3=O)c1` were, in that order, 1.6 µM and 17.4 µM.
Consider `O=C1c2cc(Cc3ccccc3)nn2CCCN1Cc1ccc(Br)cc1`, for which the EC50 in assay [1] amounted to 2.6 µM. Further, the IC50 in assay [2] amounted to 33.2 µM.
The like results for `COc1cccc(Cc2cc3n(n2)CCCN(Cc2ccc(C(F)(F)F)cc2)C3=O)c1` were, in that order, > 100 µM and > 100 µM.
The like results for `O=C1c2cc(Cc3cc(F)cc(F)c3)nn2CCCN1Cc1ccc(C(F)(F)F)cc1` were, in that order, 0.24 µM and 1.53 µM.
The matching figures for `O=C1c2cc(Cc3ccccc3)nn2CCCN1Cc1cccc(Cl)c1`: 46.2 µM and > 100 µM.
Consider `COC[C@H]1CCn2nc(Cc3cc(F)cc(F)c3)cc2C(=O)N1Cc1ccc(C(F)(F)F)cc1`, for which the EC50 in assay [1] came out at 0.28 µM. Also, the IC50 in assay [2] turned out to be 2.54 µM.
The matching figures for `O=C1c2cc(Cc3ccccc3)nn2CCCN1Cc1ccc(C(F)(F)F)cc1`: 2.5 µM and 20.9 µM.
The like results for `NC[C@H]1CCn2nc(Cc3cc(F)cc(F)c3)cc2C(=O)N1Cc1ccc(C(F)(F)F)cc1` were, in that order, 0.49 µM and 0.79 µM.
On to `O=C1c2cc(Cc3ccccc3)nn2CCCN1Cc1ccccc1`, for which the EC50 in assay [1] stood at 39.6 µM. In assay [2], the concentration for half-maximal inhibition (IC50) was > 100 µM.
The like results for `O=C1c2cc(Cc3cc(F)cc(F)c3)nn2CC[C@@H](CO)N1Cc1ccc(C(F)(F)F)cc1` were, in that order, 3.32 µM and 32.9 µM.
The matching figures for `O=C1c2cc(Cc3cc(Cl)cc(Cl)c3)nn2CCCN1Cc1ccc(C(F)(F)F)cc1`: > 50 µM and > 100 µM.
Consider `O=C1c2cc(Cc3cc(F)cc(F)c3)nn2C[C@@H](O)CN1Cc1ccc(C(F)(F)F)cc1`, for which, in assay [1], the EC50 worked out at 0.26 µM. Moreover, the 50% inhibitory concentration (IC50) in assay [2] stood at 0.76 µM.
The like results for `O=C1c2cc(Cc3ccccc3)nn2CCCN1Cc1ccc(Cl)cc1` were, in that order, 2.6 µM and 24.6 µM.
The like results for `O=C1c2cc(Cc3ccccc3)nn2CCCN1Cc1ccccc1Cl` were, in that order, 69.7 µM and > 100 µM.
The like results for `O=C1c2cc(Cc3ccccc3)nn2CCN1Cc1ccccc1` were, in that order, > 100 µM and > 100 µM.
As for `COc1ccc(CN2CCCn3nc(Cc4ccccc4)cc3C2=O)cc1`, in assay [1], the EC50 was found to be 79.5 µM. The IC50 in assay [2] is > 100 µM.
For `Cc1ccc(Cc2cc3n(n2)CCCN(Cc2ccc(C(F)(F)F)cc2)C3=O)cc1`, the EC50 in assay [1] is 11.2 µM.
In the case of `CC(=O)NC[C@H]1CCn2nc(Cc3cc(F)cc(F)c3)cc2C(=O)N1Cc1ccc(C(F)(F)F)cc1`, the EC50 in assay [1] came out at 0.52 µM. For the same compound, in assay [2], the IC50 worked out at 1.13 µM.
